Laboratory results published in patent publication US12297179B2, “Crystalline and salt forms of an organic compound and pharmaceutical compositions thereof” (Servier Pharmaceuticals LLC, priority 2018, dated 2025).
≈ marks a conversion by molar mass, not a printed value. Counter-ions that a name gives are not always drawn. Like-named read-outs stand apart in the source and are kept apart here.

Legend:
Type in all cases: physicochemical
[1] = Hygroscopicity by dynamic vapor sorption (DVS); details: DVS, humidity varied from 0% RH to 80% RH at 25° C.
Experimental: DVS was measured via a SMS (Surface Measurement Systems) DVS Intrinsic. The relative humidity at 25° C. was calibrated against deliquescence point of LiCl, Mg(NO3)2 and KCl.

[2] = Thermodynamic stability: slurry competition between Tris salt Forms A and C; details: DMSO/EtOH (1:8, v/v) and EtOH, 5° C./RT/50° C./75° C., 7 days
Experimental: The thermodynamic stability relationship between Tris salt Forms A and C was investigated via slurry competition experiments in 2 process related solvent systems, DMSO/EtOH (1:8, v/v) and EtOH at 4 temperature conditions (5° C./RT/50° C./75° C.). Two stages of slurry competition experiments were conducted, of which the first stage included temperature as a variable and the second stage used newly opened reagents to minimize the effect of absorbed moisture. Typical experimental procedures are described below.
About 5-10 mg of crystalline Tris salt Form C was first dissolved in ˜1.0 mL of corresponding solvent to form nearly saturated solution under corresponding temperature (equilibrating method: stirring magnetically, ˜1000 rpm, ˜2 hrs). Then ˜15 mg of each form (crystalline Tris salt Forms A and C) was physically mixed, followed by addition of the nearly saturated solution to form a suspension. The suspensions were then stirred (˜1000 rpm) under corresponding temperature for 7 days (a small amount of solids were sampled at 2 day point in the second stage experiments). The obtained solids were isolated via centrifugation (10000 rpm, 2 mins) and tested by XRPD to confirm the form.

[3] = Kinetic solubility in bio-relevant media (SGF/FaSSGF, FaSSIF, FeSSIF) and H2O at 37° C., with pH of supernatant; details: for Solubility: 37° C.; for pH: supernatant
Experimental: (§1) Weigh 100 mg of sodium chloride into a 50-mL volumetric flask. Add appropriate volume of purified water and sonicate until all solids are completely dissolved. Add sufficient purified water closely to the target volume and adjust to pH 1.6. Weigh 3 mg of FaSSIF/FeSSIF/FaSSGF powder into the volumetric flask and sonicate until the powder is completely dissolved. Dilute to target volume with purified water and mix well.
as §1, with “0.170 g of monobasic sodium phosphate, 0.021 g of sodium hydroxide and 0.31 g” for “100 mg”, “6.5.” for “1.6.”, “110” for “3”
as §1, with “0.41 mL of glacial acetic acid, 0.202 g of sodium hydroxide and 0.594 g” for “100 mg”, “5.0.” for “1.6.”, “560” for “3”
An Agilent 1260 HPLC with DAD detector was utilized and detailed chromatographic conditions for solubility analysis are listed in Table 5.
Kinetic solubility of Tris salt Form A and free acid Form D were measured in three bio-relevant media (SGF, FaSSIF and FeSSIF) at 37° C. In details, ˜30 mg solids were suspended into 4.0 mL of each medium initially and equilibrated via shaking (500 rpm) at 37° C. Approximately 0.8 mL suspension was extracted at each time point of 15/30/60/120 mins and 24 hrs. The supernatant and precipitate were separated by centrifugation (10000 rpm, ˜3 mins) followed by concentration (HPLC) and pH measurement for supernatant and the corresponding solid forms were characterized by XRPD.
Due to the thermodynamic stability of Tris salt Form C, further evaluation was conducted, including kinetic solubility in three bio-relevant media (FaSSGF/FaSSF/FeSSIF) and H2O at 37° C.

[4] = Thermodynamic stability study: slurry competition among free acid Form A/B/C/D; details: 50° C. and 70° C.
Experimental: To investigate and compare the thermodynamic stability among the identified four crystalline forms of Compound 1 (free acid Form A/B/C/D), two stages of slurry competition experiments were conducted, of which the first one was to study the anhydrous solvent systems and the second stage was solvent systems with different water activities (aw).
In the first stage, ˜2 mg of each solid form (free acid Form A/B/C/D) was physically mixed first, followed by addition of 0.5 mL solvent to form suspension. At various slurrying conditions, a small amount of solid was isolated after ˜7 days for XRPD test.
To further explore any impact of water content on the conversion relationship, six conditions with different water activities and temperatures were applied. Approximately 2 mg of each solid form (free acid Form A/B/C/D) was mixed and suspended in 1.0 mL corresponding solvent systems. After slurry for ˜1 month, the solids were isolated for XRPD test.

[5] = FaSSIF (blank pH 6.5), 120 mins
[6] = FeSSIF (blank pH 5.0), 120 mins
[7] = anhydrous solvent systems, slurry at RT, ~7 days
[8] = solvent mixtures with different water activities (aw: 0~1), RT, ~1 month

SMILES | Solubility ([3]; FaSSIF, 15 mins) [µg/mL] | Solubility ([3]; FaSSIF, 30 mins) [µg/mL] | Solubility ([3]; FaSSIF, 60 mins) [µg/mL] | Solubility ([3]; FaSSIF, 120 mins) [µg/mL] | Solubility ([3]; FaSSIF, 24 hrs) [µg/mL] | Solubility ([3]; FeSSIF, 15 mins) [µg/mL] | Solubility ([3]; FeSSIF, 30 mins) [µg/mL] | Solubility ([3]; FeSSIF, 60 mins) [µg/mL] | Solubility ([3]; FeSSIF, 120 mins) [µg/mL] | Solubility ([3]; FeSSIF, 24 hrs) [µg/mL] | Solubility ([3]; SGF, 30 mins) [µg/mL] | Solubility ([3]; SGF, 60 mins) [µg/mL] | Solubility ([3]; SGF, 24 hrs) [µg/mL] | pH ([3]; FaSSIF (blank pH 6.5), 15 mins) | pH ([3]; FaSSIF (blank pH 6.5), 30 mins) | pH ([3]; FaSSIF (blank pH 6.5), 60 mins) | pH [3, 5] | pH ([3]; FaSSIF (blank pH 6.5), 24 hrs) | form after slurry competition (XRPD), thermodynamic stability [4, 7] | form after slurry competition (XRPD), thermodynamic stability [4, 8] | further results
Cc1ccccc1-c1ccc(-c2cc(C(=O)O)c3c(c2)nnn3C)cc1 [Tris salt Form A] | 490 | 260 | 200 | 170 | 130 | 160 | 200 | 290 | 81 | 120 | 94 | 100 | 110 | 7.5 | 7.5 | 7.5 | 7.5 | 7.5 | – | – | moisture uptake [1]: ~5 wt %; form after slurry competition (XRPD), thermodynamic stability [2]: converted to Tris salt Form C; Solubility ([3]; SGF, 15 mins): 60 µg/mL; solubility at 24 h ([3]; SGF, FaSSIF and FeSSIF, 37 °C, fassgf or other biorelevant, thermodynamic from solid, all SGF/FaSSIF/FeSSIF media, at 24 hours point): > 100 µg/mL; pH ([3]; FeSSIF (blank pH 5.0), 15 mins): 5.4; pH ([3]; FeSSIF (blank pH 5.0), 30 mins): 5.5; pH ([3]; FeSSIF (blank pH 5.0), 60 mins): 5.5; pH [3, 6]: 5.5; pH ([3]; FeSSIF (blank pH 5.0), 24 hrs): 5.5; pH ([3]; SGF (blank pH 1.8), 15 mins): 6.6; pH ([3]; SGF (blank pH 1.8), 30 mins): 7.2; pH ([3]; SGF (blank pH 1.8), 60 mins): 7.3; pH ([3]; SGF (blank pH 1.8), 120 mins): 7.4; pH ([3]; SGF (blank pH 1.8), 24 hrs): 7.4
Cc1ccccc1-c1ccc(-c2cc(C(=O)O)c3c(c2)nnn3C)cc1 [free acid Form A] | – | – | – | – | – | – | – | – | – | – | – | – | – | – | – | – | – | – | converted to Form D | converted to Form D | –

Now from value to compound, other results behind:

Solubility ([3]; FaSSIF, 15 mins) [µg/mL] | Solubility ([3]; FaSSIF, 30 mins) [µg/mL] | Solubility ([3]; FaSSIF, 60 mins) [µg/mL] | Solubility ([3]; FaSSIF, 120 mins) [µg/mL] | Solubility ([3]; FaSSIF, 24 hrs) [µg/mL] | Solubility ([3]; FeSSIF, 15 mins) [µg/mL] | Solubility ([3]; FeSSIF, 30 mins) [µg/mL] | Solubility ([3]; FeSSIF, 60 mins) [µg/mL] | Solubility ([3]; FeSSIF, 120 mins) [µg/mL] | Solubility ([3]; FeSSIF, 24 hrs) [µg/mL] | Solubility ([3]; SGF, 30 mins) [µg/mL] | Solubility ([3]; SGF, 60 mins) [µg/mL] | Solubility ([3]; SGF, 24 hrs) [µg/mL] | pH ([3]; FaSSIF (blank pH 6.5), 15 mins) | pH ([3]; FaSSIF (blank pH 6.5), 30 mins) | pH ([3]; FaSSIF (blank pH 6.5), 60 mins) | pH [3, 5] | pH ([3]; FaSSIF (blank pH 6.5), 24 hrs) | form after slurry competition (XRPD), thermodynamic stability [4, 7] | form after slurry competition (XRPD), thermodynamic stability [4, 8] | SMILES | further results
– | – | – | – | – | – | – | – | – | – | – | – | – | – | – | – | – | – | converted to Form D | converted to Form D | Cc1ccccc1-c1ccc(-c2cc(C(=O)O)c3c(c2)nnn3C)cc1 [free acid Form B] | –
– | – | – | – | – | – | – | – | – | – | – | – | – | – | – | – | – | – | converted to Form D | converted to Form D | Cc1ccccc1-c1ccc(-c2cc(C(=O)O)c3c(c2)nnn3C)cc1 [free acid Form C] | –
3.8 (≈ 11.1 µM) | 4.3 (≈ 12.5 µM) | 4.8 (≈ 14 µM) | 5.0 (≈ 14.6 µM) | 4.8 (≈ 14 µM) | 5.6 (≈ 16.3 µM) | 7.3 (≈ 21.3 µM) | 5.9 (≈ 17.2 µM) | 7.7 (≈ 22.4 µM) | 6.4 (≈ 18.6 µM) | 0.11 (≈ 0.32 µM) | 0.14 (≈ 0.408 µM) | 0.18 (≈ 0.524 µM) | 6.4 | 6.5 | 6.5 | 6.5 | 6.4 | more stable than Form A/B/C | more stable than Form A/B/C | Cc1ccccc1-c1ccc(-c2cc(C(=O)O)c3c(c2)nnn3C)cc1 [free acid Form D] | moisture uptake ([1]; listed as freeform Type D): ~5 wt %; Solubility ([3]; FaSSIF and FeSSIF, 37 °C, fassgf or other biorelevant, thermodynamic from solid, in FaSSIF and FeSSIF, read-out: solubility): 3 to 8 µg/mL (≈ 8.74 to 23.3 µM); solubility at 120 min ([3]; SGF, 37 °C, pH 1.6, fassgf or other biorelevant, thermodynamic from solid, 120 mins): 0.13 µg/mL (≈ 0.379 µM); Solubility ([3]; SGF, 37 °C, pH 1.6, fassgf or other biorelevant, thermodynamic from solid, in SGF, read-out: solubility): < 1 µg/mL; pH ([3]; FeSSIF (blank pH 5.0), 15 mins): 5.0; pH ([3]; FeSSIF (blank pH 5.0), 30 mins): 5.0; pH ([3]; FeSSIF (blank pH 5.0), 60 mins): 5.0; pH [3, 6]: 5.0; pH ([3]; FeSSIF (blank pH 5.0), 24 hrs): 5.0; pH ([3]; SGF (blank pH 1.8), 15 mins): 2.0; pH ([3]; SGF (blank pH 1.8), 30 mins): 2.1; pH ([3]; SGF (blank pH 1.8), 60 mins): 2.1; pH ([3]; SGF (blank pH 1.8), 120 mins): 2.1; pH ([3]; SGF (blank pH 1.8), 24 hrs): 2.2
